Data on 36 molecules can be found in patent US10654837B2, “Sulphamoylaryl derivatives and use thereof as medicaments for the treatment of liver fibrosis” (Janssen Pharmaceutica NV, priority 2017, dated 2020).

The term IC50 denotes the concentration needed to halve the response being measured.

T1 sequence (P41595 whole entry): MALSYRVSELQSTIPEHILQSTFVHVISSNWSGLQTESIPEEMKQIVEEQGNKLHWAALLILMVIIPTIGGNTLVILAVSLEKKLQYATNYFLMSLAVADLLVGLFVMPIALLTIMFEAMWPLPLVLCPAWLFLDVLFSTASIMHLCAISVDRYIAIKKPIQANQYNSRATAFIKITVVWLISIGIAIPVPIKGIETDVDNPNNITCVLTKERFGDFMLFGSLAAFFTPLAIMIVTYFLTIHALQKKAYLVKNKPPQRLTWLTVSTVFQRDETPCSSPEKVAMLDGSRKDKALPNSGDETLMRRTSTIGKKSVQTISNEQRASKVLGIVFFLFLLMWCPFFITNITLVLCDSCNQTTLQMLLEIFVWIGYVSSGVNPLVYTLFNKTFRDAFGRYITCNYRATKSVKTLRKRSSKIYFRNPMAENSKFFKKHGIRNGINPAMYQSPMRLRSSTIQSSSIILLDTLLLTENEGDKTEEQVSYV

This test has as its target T1, 5HTR2B (Homo sapiens, UniProt P41595).
T1 construct: host or cells: human Maverick/293 cells
Description: 5HTR2B antagonist activity, calcium mobilization assay in human Maverick/293 cells (serotonin as agonist). The format is cell-based. To be noted: intracellular calcium, emission 525 nm, read-out: Ca assay IC50. The procedure, abridged: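 Calcium mobilization read over 80 s at ex 485/em 525 nm after serotonin addition. Before that, 2 h serum-free starvation, 50 min dye loading at 37 °C, and 15-30 min antagonist exposure. IC50 from sigmoidal fit of peak % inhibition.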
For orientation: Calcium flux is commonly read through the fluorescence of an indicator in the cells.
For the molecule `COc1ccc(S(=O)(=O)N[C@H]2CCOC2)cc1C(=O)Nc1ccncn1` [Compound 165, (S)-2-Methoxy-N-(pyrimidin-4-yl)-5-(N-(tetrahydrofuran-3-yl)sulfamoyl) benzamide], the IC50 is 511 nM.

As to `COc1ccccc1NC(=O)c1cc(S(=O)(=O)N[C@H]2CCOC2)ccc1OC` [Compound 166, (S)-2-Methoxy-N-(2-methoxyphenyl)-5-(N-(tetrahydrofuran-3-yl)sulfamoyl) benzamide], the IC50 is 0.16 nM.

Consider `COc1ccc(S(=O)(=O)N[C@H]2CCOC2)cc1C(=O)Nc1ccc(F)c(C(F)F)c1` [Compound 167, (S)—N-(3-(Difluoromethyl)-4-fluorophenyl)-2-methoxy-5-(N-(tetrahydrofuran-3-yl)sulfamoyl)benzamide], for which the IC50 was 0.32 nM.

Consider `COc1ccc(S(=O)(=O)NC2(C(F)(F)F)CC2)cc1C(=O)Nc1ccc(F)c(C)n1` [Compound 168, N-(5-fluoro-6-methylpyridin-2-yl)-2-methoxy-5-(N-(1-(trifluoromethyl)cyclopropyl)sulfamoyl)benzamide], for which the IC50 was 3.9 nM.

For `COc1ccc(S(=O)(=O)NC2CNC2)cc1C(=O)Nc1ccc(F)c(C)n1` [Compound 169, 5-(N-(Azetidin-3-yl)sulfamoyl)-N-(5-fluoro-6-methylpyridin-2-yl)-2-Methoxy benzamide], the IC50 came to 65 nM.

Turning to `COc1ccc(S(=O)(=O)NC2CN(C)C2)cc1C(=O)Nc1ccc(F)c(C)n1` [Compound 170, N-(5-Fluoro-6-methylpyridin-2-yl)-2-methoxy-5-(N-(1-methylazetidin-3-yl)sulfamoyl)benzamide], the IC50 came to 58 nM.

With `COc1ccc(S(=O)(=O)N[C@H]2CCOC2)cc1C(=O)Nc1nc(C)c(F)c(Cl)n1` [Compound 171, (S)—N-(4-chloro-5-fluoro-6-methylpyrimidin-2-yl)-2-methoxy-5-(N-(tetrahydrofuran-3-yl)sulfamoyl)benzamide], the IC50 amounted to 106 nM.

As to `COc1ccc(S(=O)(=O)N[C@H]2CCOC2)cc1C(=O)Nc1ncc(F)c(C)n1` [Compound 172, (S)—N-(5-fluoro-4-methylpyrimidin-2-yl)-2-methoxy-5-(N-(tetrahydrofuran-3-yl)sulfamoyl)benzamide], the half-inhibitory concentration (IC50) was 33 nM.

In the case of `COc1ccc(S(=O)(=O)N[C@H]2C[C@@H](O)C2)cc1C(=O)Nc1ccc(F)c(C)c1F` [Compound 173, N-(2,4-Difluoro-3-methylphenyl)-5-(N-((cis)-3-hydroxycyclobutyl)sulfamoyl)-2-methoxybenzamide], the IC50 turned out to be 0.8 nM.

For the molecule `COc1ccc(S(=O)(=O)N[C@H]2C[C@H](O)C2)cc1C(=O)Nc1ccc(F)c(C(F)F)n1` [Compound 174a, N-(6-(Difluoromethyl)-5-fluoropyridin-2-yl)-5-(N-((trans)-3-hydroxycyclobutyl)sulfamoyl)-2-methoxybenzamide], the IC50 turned out to be 3.9 nM.

Regarding `COc1ccc(S(=O)(=O)N[C@H]2C[C@@H](O)C2)cc1C(=O)Nc1ccc(F)c(C(F)F)n1` [Compound 174b, N-(6-(Difluoromethyl)-5-fluoropyridin-2-yl)-5-(N-((cis)-3-hydroxycyclobutyl)sulfamoyl)-2-methoxybenzamide], the half-inhibitory concentration (IC50) is 1.7 nM.

Consider `COc1ccc(S(=O)(=O)N[C@H]2CCNC2)cc1C(=O)Nc1ccc(F)c(C)n1` [Compound 175, (S)—N-(5-Fluoro-6-methylpyridin-2-yl)-2-methoxy-5-(N-(pyrrolidin-3-yl)sulfamoyl)benzamide], for which the IC50 is 1.6 nM.

As for `COc1ccc(S(=O)(=O)N[C@H]2CCN(C)C2)cc1C(=O)Nc1ccc(F)c(C)n1` [Compound 176, (S)—N-(5-Fluoro-6-methylpyridin-2-yl)-2-methoxy-5-(N-(1-methylpyrrolidin-3-yl)sulfamoyl)benzamide], the IC50 worked out at 5 nM.

Consider `COc1ccc(S(=O)(=O)N[C@@H]2CCNC2)cc1C(=O)Nc1ccc(F)c(C)n1` [Compound 177, (R)—N-(5-Fluoro-6-methylpyridin-2-yl)-2-methoxy-5-(N-(pyrrolidin-3-yl)sulfamoyl)benzamide], for which the IC50 is 4.2 nM.

As for `COc1ccc(S(=O)(=O)N[C@H]2CCNC2)cc1C(=O)Nc1ccc(F)cc1` [Compound 178, (S)—N-(4-Fluorophenyl)-2-methoxy-5-(N-(pyrrolidin-3-yl)sulfamoyl)benzamide], the IC50 was determined as 0.3 nM.

On to `COc1ccc(S(=O)(=O)N[C@H]2CCNC2)cc1C(=O)Nc1ccccc1Cl` [Compound 179, (S)—N-(2-Chlorophenyl)-2-methoxy-5-(N-(pyrrolidin-3-yl)sulfamoyl)benzamide], for which the IC50 amounted to 0.1 nM.

As for `COc1ccc(S(=O)(=O)N[C@@H]2CCNC2)cc1C(=O)Nc1ccc(F)cc1` [Compound 180, (R)—N-(4-Fluorophenyl)-2-methoxy-5-(N-(pyrrolidin-3-yl)sulfamoyl)benzamide], the IC50 was determined as 3.3 nM.

`COc1ccc(S(=O)(=O)N[C@@H]2CCNC2)cc1C(=O)Nc1ccc(F)c(C(F)F)c1` [Compound 181]: the IC50 was found to be 4.5 nM.

With `COc1ccc(S(=O)(=O)N[C@H]2CCNC2)cc1C(=O)Nc1ccc(F)cc1F` [Compound 182], the half-maximal inhibitory concentration (IC50) worked out at 0.3 nM.

`COc1ccc(S(=O)(=O)N[C@H]2CCNC2)cc1C(=O)Nc1ccc(F)c(C(F)F)c1` [Compound 183, (S)—N-(3-(difluoromethyl)-4-fluorophenyl)-2-methoxy-5-(N-(pyrrolidin-3-yl)sulfamoyl)benzamide]: the IC50 is 0.5 nM.

In the case of `COc1ccccc1NC(=O)c1cc(S(=O)(=O)N[C@H]2CCNC2)ccc1OC` [Compound 184, (S)-2-methoxy-N-(2-methoxyphenyl)-5-(N-(pyrrolidin-3-yl)sulfamoyl) benzamide], the IC50 came to 0.3 nM.

Turning to `COc1ccc(S(=O)(=O)N[C@H]2CCNC2)cc1C(=O)Nc1ccc(Cl)cc1F` [Compound 185, (S)—N-(4-chloro-2-fluorophenyl)-2-methoxy-5-(N-(pyrrolidin-3-yl)sulfamoyl) benzamide], the IC50 was found to be 0.8 nM.

On to `COc1ccc(S(=O)(=O)N[C@H]2CCNC2)cc1C(=O)Nc1cc(F)ccc1Cl` [Compound 186, (S)—N-(2-chloro-5-fluorophenyl)-2-methoxy-5-(N-(pyrrolidin-3-yl)sulfamoyl) benzamide], for which the IC50 was determined as 0.3 nM.

`COc1ccc(S(=O)(=O)N[C@H]2CCNC2)cc1C(=O)Nc1ccc(F)c(C)c1` [Compound 187, (S)—N-(4-fluoro-3-methylphenyl)-2-methoxy-5-(N-(pyrrolidin-3-yl)sulfamoyl) benzamide]: the IC50 worked out at 0.7 nM.

Take `COc1ccc(S(=O)(=O)N[C@@H]2CCNC2)cc1C(=O)Nc1ccc(F)cc1F` [Compound 188, (R)—N-(2,4-difluorophenyl)-2-methoxy-5-(N-(pyrrolidin-3-yl)sulfamoyl) benzamide]: the half-inhibitory concentration (IC50) worked out at 1.6 nM.

As for `COc1ccc(S(=O)(=O)N(C)[C@H]2CCOC2)cc1C(=O)Nc1ccc(F)c(C)n1` [Compound 189, (S)—N-(5-fluoro-6-methylpyridin-2-yl)-2-methoxy-5-(N-methyl-N-(tetrahydrofuran-3-yl)sulfamoyl) benzamide], the half-maximal inhibitory concentration (IC50) worked out at 14 nM.

In the case of `[2H]C([2H])([2H])Oc1ccc(S(=O)(=O)N[C@H]2CCOC2)cc1C(=O)Nc1ccc(F)cc1` [Compound 190, (S)—N-(4-fluorophenyl)-2-(methoxy-d3)-5-(N-(tetrahydrofuran-3-yl)sulfamoyl) benzamide], the IC50 came to 0.9 nM.

Take `[2H]C([2H])([2H])Oc1ccc(S(=O)(=O)N[C@H]2CCOC2)cc1C(=O)Nc1ccc(F)c(C)c1` [Compound 191, (S)—N-(4-fluoro-3-methylphenyl)-2-(methoxy-d3)-5-(N-(tetrahydrofuran-3-yl)sulfamoyl)benzamide]: the concentration for half-maximal inhibition (IC50) was 1.1 nM.

Consider `[2H]C([2H])([2H])Oc1ccc(S(=O)(=O)N[C@H]2CCOC2)cc1C(=O)Nc1ccc(F)c(C(F)F)c1` [Compound 192, (S)—N-(3-(Difluoromethyl)-4-fluorophenyl)-2-(methoxy-d3)-5-(N-(tetrahydrofuran-3-yl)sulfamoyl)benzamide], for which the IC50 was determined as 0.4 nM.

Turning to `[2H]C([2H])([2H])Oc1ccc(S(=O)(=O)N[C@H]2CCOC2)cc1C(=O)Nc1ccc(F)cn1` [Compound 193, (S)—N-(5-fluoropyridin-2-yl)-2-(methoxy-d3)-5-(N-(tetrahydrofuran-3-yl)sulfamoyl)benzamide], the IC50 was determined as 3.2 nM.

In the case of `[2H]C([2H])([2H])Oc1ccc(S(=O)(=O)N[C@H]2CCOC2)cc1C(=O)Nc1ccc(F)c(C)n1` [Compound 194, (S)—N-(5-fluoro-6-methylpyridin-2-yl)-2-(methoxy-d3)-5-(N-(tetrahydrofuran-3-yl)sulfamoyl)benzamide], the IC50 amounted to 1.1 nM.

`[2H]C([2H])([2H])Oc1ccc(S(=O)(=O)N[C@H]2CCOC2)cc1C(=O)Nc1ccc(F)c(C2CC2)n1` [Compound 195, (S)—N-(6-cyclopropyl-5-fluoropyridin-2-yl)-2-(methoxy-d3)-5-(N-(tetrahydrofuran-3-yl)sulfamoyl)benzamide]: the IC50 was determined as 0.9 nM.

Turning to `[2H]C([2H])([2H])Oc1ccc(S(=O)(=O)N[C@H]2CCOC2)cc1C(=O)Nc1ncc(F)cc1F` [Compound 196, (S)—N-(3,5-difluoropyridin-2-yl)-2-(methoxy-d3)-5-(N-(tetrahydrofuran-3-yl)sulfamoyl)benzamide], the concentration for half-maximal inhibition (IC50) is 19 nM.

Turning to `Cc1nc(NC(=O)c2cc(S(=O)(=O)N[C@H]3CCOC3)ccc2OC(C)C)ccc1F` [Compound 197, (S)—N-(5-fluoro-6-methylpyridin-2-yl)-2-isopropoxy-5-(N-(tetrahydrofuran-3-yl)sulfamoyl)benzamide], the IC50 was found to be 5.3 nM.

On to `CCOc1ccc(S(=O)(=O)N[C@H]2CCOC2)cc1C(=O)Nc1ccc(F)c(C)n1` [Compound 198, (S)-2-ethoxy-N-(5-fluoro-6-methylpyridin-2-yl)-5-(N-(tetrahydrofuran-3-yl)sulfamoyl)benzamide], for which the IC50 amounted to 0.7 nM.

`CCCOc1ccc(S(=O)(=O)N[C@H]2CCOC2)cc1C(=O)Nc1ccc(F)c(C)n1` [Compound 199, (S)—N-(5-fluoro-6-methylpyridin-2-yl)-2-propoxy-5-(N-(tetrahydrofuran-3-yl)sulfamoyl) benzamide]: the IC50 came to 3.7 nM.
